Columns and labels:
Format in all cases: cell-based
hERG potassium channel = biological target: T1, hERG potassium channel (Homo sapiens, UniProt Q12809); assay: Evaluation of cardiac safety: hERG potassium channel whole-cell patch clamp in HEK-293 cells; conditions: HEK-293 cells over-expressing hERG potassium channel, tail current, room temperature
T1 construct: expressed in transfected cells; host or cells: HEK-293 cells, stably transformed
Description: The cell strains were derived from HEK-293 cells over-expressing hERG potassium channel. The cells were cultured in an incubator at 37° C. 5% CO2. […]
The stably-transformed cells were seeded onto a slide at a cell density of less than 50% and cultured overnight. […] Membrane currents were recorded by using a HEKA EPC-10 patch clamp amplifier and PATCHMASTER acquisition system (HEKA Instruments Inc., D-67466 Lambrecht. Pfalz. Germany) and analyzed and counted by using Origin 8.5 (OriginLab Corporation. Northampton. MA) software and Microsoft Excel (results in Table 4). […]
Channel currents were recorded in the experiments using a whole-cell recording mode. An extracellular fluid (approximately 2 mL per min) was firstly perfused, the process was continuously recorded, and the current was waited for stabilization (current decay (Run-Down) was less than 5% in 5 min); at this point, the tail current peak value was the control current value. Then, the extracellular fluid containing the test drug was perfused, and the process was continuously recorded until the inhibitory effect of the drug on the hERG current reached a stable state; at this point, the tail current peak value was the current value after dosing. […]

K562 cells = assay: Inhibitory effect of compounds on proliferation of K562 cells (CCK-8); conditions: Homo sapiens, 72 h with compound, CCK-8, 5% serum
Description: K562 cells in logarithmic growth phase and good cell condition were added to a centrifuge tube and centrifuged at 1000 rpm for 5 min in a low speed centrifuge. […] The cells were seeded on a 96-well plate at 100 µL/well using a multi-channel pipette and cultured in a cell incubator at 37° ° C. 5% CO2 and saturated humidity. […] Inhibition rate (%)=(mean value of negative control group−mean value of experimental group)/(mean value of negative control group−mean value of blank group)×100%. A dose-response curve was fitted by four-parameter analysis, with the logarithm of compound concentration serving as abscissa and inhibition rate serving as ordinate, such that IC50 was calculated.

[1] = biological target: T2, Ba/F3-BCR-ABL1-T315I-C3 cells (Homo sapiens, UniProt P00519, T315I, cells depend on it); assay: Inhibitory effect of compounds on proliferation of BCR-ABL T315I-transfected Ba/F3 cells (CCK-8); conditions: 72 h with compound, CCK-8, 5% serum, read-out: IC50 (nM) Ba/F3-BCR-ABL1 T315I
T2 construct: fused on or other part: P11274 (Breakpoint cluster region protein)
Description: Ba/F3-BCR-ABL1-T315I-C3 cells in logarithmic growth phase and good cell condition were added to a centrifuge tube and centrifuged at 1000 rpm for 5 min in a low speed centrifuge. The supernatant was discarded, and 5 mL of complete medium (RPMI 1640 basic medium+10% FBS) was added using a pipette for cell resuspension. The cells were counted using a cell counter, diluted with complete medium to a cell density of 6×10^4 cells/mL, and an equivalent amount of RPMI 1640 basic medium was added to adjust the serum concentration to 5% and the cell density to 3×10^4 cells/mL for plate seeding. The cells were seeded on a 96-well plate at 100 μL/well using a multi-channel pipette and cultured in a cell incubator at 37° C. 5% CO2 and saturated humidity. After 24 h incubation, compounds were loaded using a nanoliter pipettor, 8 concentrations (1000 nM, 250 nM, 63 nM, 16 nM, 3.9 nM, 0.98 nM, 0.24 nM, 0.061 nM) were set for each compound, and 2 replicate wells were set for each concentration; cells with no compounds added were taken as a negative control, and a plating medium with no cells added was taken as a blank control. After 72 h. […] Inhibition rate (%)=(mean value of negative control group−mean value of experimental group)/(mean value of negative control group−mean value of blank group)×100%. A dose-response curve was fitted by four-parameter analysis, with the logarithm of compound concentration serving as abscissa and inhibition rate serving as ordinate, such that ICso was calculated.

T1 sequence (Q12809 whole entry): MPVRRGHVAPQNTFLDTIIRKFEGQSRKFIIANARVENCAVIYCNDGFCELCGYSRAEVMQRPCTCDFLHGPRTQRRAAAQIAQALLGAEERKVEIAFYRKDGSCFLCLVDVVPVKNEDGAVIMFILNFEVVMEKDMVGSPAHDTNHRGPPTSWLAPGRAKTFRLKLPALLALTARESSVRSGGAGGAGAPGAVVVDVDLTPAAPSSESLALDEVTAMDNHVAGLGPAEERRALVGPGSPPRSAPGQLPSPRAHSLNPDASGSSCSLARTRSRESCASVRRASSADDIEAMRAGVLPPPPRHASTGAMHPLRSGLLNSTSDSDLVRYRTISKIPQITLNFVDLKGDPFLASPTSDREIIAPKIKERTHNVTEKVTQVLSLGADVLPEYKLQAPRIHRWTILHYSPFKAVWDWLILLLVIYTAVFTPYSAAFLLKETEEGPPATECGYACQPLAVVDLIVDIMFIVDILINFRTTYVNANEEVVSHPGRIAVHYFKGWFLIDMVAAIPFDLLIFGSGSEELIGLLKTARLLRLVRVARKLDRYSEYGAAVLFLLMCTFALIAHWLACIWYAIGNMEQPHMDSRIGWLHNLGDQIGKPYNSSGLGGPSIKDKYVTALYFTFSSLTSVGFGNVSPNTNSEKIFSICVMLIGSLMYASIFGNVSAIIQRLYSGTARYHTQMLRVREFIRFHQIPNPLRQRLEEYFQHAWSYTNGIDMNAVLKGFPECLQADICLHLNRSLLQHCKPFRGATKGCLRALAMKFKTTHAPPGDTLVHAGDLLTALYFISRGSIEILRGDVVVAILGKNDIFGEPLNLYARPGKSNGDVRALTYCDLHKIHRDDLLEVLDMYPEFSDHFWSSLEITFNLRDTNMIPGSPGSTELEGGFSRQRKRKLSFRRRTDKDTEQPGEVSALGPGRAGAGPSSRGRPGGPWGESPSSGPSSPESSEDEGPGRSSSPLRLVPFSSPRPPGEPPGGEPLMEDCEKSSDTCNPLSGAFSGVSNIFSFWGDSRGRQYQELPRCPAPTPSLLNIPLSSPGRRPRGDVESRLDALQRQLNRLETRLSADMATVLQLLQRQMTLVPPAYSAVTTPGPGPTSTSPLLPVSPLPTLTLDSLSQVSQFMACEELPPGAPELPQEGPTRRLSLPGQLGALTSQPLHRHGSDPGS

| IC50 (K562 cells) [nM] | GI50 [1] [nM] | SMILES | IC50 (hERG potassium channel) [nM] |
| --- | --- | --- | --- |
| 1.2 | 0.86 | O=C(Nc1ccc(OC(F)(F)Cl)cc1)c1cnc(N2CC(O)C2)c(-c2cc3c([nH]2)C(=O)NC3)c1 [Compound 104] | > 30000 |
| 1.1 | 0.54 | O=C(Nc1ccc(OC(F)(F)Cl)cc1)c1cnc(N2CC[C@@H](O)C2)c(-c2cc3c([nH]2)C(=O)NC3)c1 [Compound 106] | > 30000 |

Reference: patent publication US20240262807A1, “COMPOUND USED AS BCR-ABL INHIBITOR” (CHIA TAI TIANQING PHARMACEUTICAL GROUP CO., LTD., priority 2021, published 2024)
